The supplement of paper PMC11451515

Tested on: SEM cells
Assay: cell viability relative to DMSO control; higher = less cytotoxic
Conditions: 48 h
How it was run: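 NOMO1, SEM and P12-Ichikawa leukemia cells spent at least four passages adapting to each medium before use. They were seeded at 500 cells/well (NOMO1, SEM) or 1000 cells/well (P12-Ichikawa) in 5 μl in 1536-well plates and pin-dosed with library compounds in DMSO at 11 threefold steps from 47 μM down to 0.79 nM. After 48 h at 37°C, CellTiter-Glo One luminescence was read. Viability is reported as a percentage of the DMSO wells on each plate, with cell-free wells as background.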

[1] = HPLM + 10% dialyzed FBS, 0.000781 µM
[2] = HPLM + 10% dialyzed FBS, 0.00234 µM
[3] = HPLM + 10% dialyzed FBS, 0.00702 µM
[4] = HPLM + 10% dialyzed FBS, 0.0211 µM
[5] = HPLM + 10% dialyzed FBS, 0.0632 µM
[6] = HPLM + 10% dialyzed FBS, 0.19 µM
[7] = HPLM + 10% dialyzed FBS, 0.569 µM
[8] = HPLM + 10% dialyzed FBS, 1.71 µM
[9] = HPLM + 10% dialyzed FBS, 5.12 µM
[10] = HPLM + 10% dialyzed FBS, 15.4 µM
[11] = HPLM + 10% dialyzed FBS, 46.1 µM
[12] = RPMI 5 mM glucose + 10% FBS, 0.000781 µM
[13] = RPMI 5 mM glucose + 10% FBS, 0.00234 µM
[14] = RPMI 5 mM glucose + 10% FBS, 0.00702 µM
[15] = RPMI 5 mM glucose + 10% FBS, 0.0211 µM
[16] = RPMI 5 mM glucose + 10% FBS, 0.0632 µM
[17] = RPMI 5 mM glucose + 10% FBS, 0.19 µM
[18] = RPMI 5 mM glucose + 10% FBS, 0.569 µM
[19] = RPMI 5 mM glucose + 10% FBS, 1.71 µM
[20] = RPMI 5 mM glucose + 10% FBS, 5.12 µM
[21] = RPMI 5 mM glucose + 10% FBS, 15.4 µM
[22] = RPMI 5 mM glucose + 10% FBS, 46.1 µM
[23] = RPMI 5 mM glucose + 10% dialyzed FBS, 0.000781 µM
[24] = RPMI 5 mM glucose + 10% dialyzed FBS, 0.00234 µM
[25] = RPMI 5 mM glucose + 10% dialyzed FBS, 0.00702 µM
[26] = RPMI 5 mM glucose + 10% dialyzed FBS, 0.0211 µM
[27] = RPMI 5 mM glucose + 10% dialyzed FBS, 0.0632 µM
[28] = RPMI 5 mM glucose + 10% dialyzed FBS, 0.19 µM
[29] = RPMI 5 mM glucose + 10% dialyzed FBS, 0.569 µM
[30] = RPMI 5 mM glucose + 10% dialyzed FBS, 1.71 µM
[31] = RPMI 5 mM glucose + 10% dialyzed FBS, 5.12 µM
[32] = RPMI 5 mM glucose + 10% dialyzed FBS, 15.4 µM
[33] = RPMI 5 mM glucose + 10% dialyzed FBS, 46.1 µM

| SMILES | cell viability [1] [%] | cell viability [2] [%] | cell viability [3] [%] | cell viability [4] [%] | cell viability [5] [%] | cell viability [6] [%] | cell viability [7] [%] | cell viability [8] [%] | cell viability [9] [%] | cell viability [10] [%] | cell viability [11] [%] | cell viability [12] [%] | cell viability [13] [%] | cell viability [14] [%] | cell viability [15] [%] | cell viability [16] [%] | cell viability [17] [%] | cell viability [18] [%] | cell viability [19] [%] | cell viability [20] [%] | cell viability [21] [%] | cell viability [22] [%] | cell viability [23] [%] | cell viability [24] [%] | cell viability [25] [%] | cell viability [26] [%] | cell viability [27] [%] | cell viability [28] [%] | cell viability [29] [%] | cell viability [30] [%] | cell viability [31] [%] | cell viability [32] [%] | cell viability [33] [%] |
| --- | --- | --- | --- | --- | --- | --- | --- | --- | --- | --- | --- | --- | --- | --- | --- | --- | --- | --- | --- | --- | --- | --- | --- | --- | --- | --- | --- | --- | --- | --- | --- | --- | --- |
| Clc1ccc(C2(c3ccc(-c4cn[nH]c4)cc3)CCNCC2)cc1 | 79.1 | 97.2 | 83.5 | 106 | 88.8 | 96.4 | 73.7 | 87.4 | 77.7 | 40.1 | 39.9 | 95.1 | 99 | 110 | 108 | 96.1 | 100 | 98.7 | 102 | 95.9 | 56.7 | 61 | 88.3 | 91.9 | 90.7 | 92.7 | 80.5 | 90.7 | 71.8 | 89.5 | 80.1 | 57.1 | 46.5 |
| NC1CCC(N[C@@H]2C[C@H]2c2ccccc2)CC1 (stereo partly drawn) | 75.5 | 90 | 87.5 | 87.5 | 92.9 | 92.8 | 93.7 | 76.4 | 83.2 | 82.3 | 81.5 | 120 | 126 | 114 | 115 | 119 | 124 | 146 | 106 | 111 | 105 | 98.9 | 84.2 | 98.5 | 99.8 | 96.7 | 98 | 96.3 | 106 | 81.9 | 92.4 | 81.4 | 74 |
| CCC[C@@H]1C[C@@H](C(=O)N[C@@H]([C@H]2O[C@H](SC)[C@H](O)[C@@H](O)[C@H]2O)[C@@H](C)O)N(C)C1.Cl | 125 | 121 | 118 | 109 | 119 | 127 | 114 | 122 | 103 | 117 | 91 | 110 | 114 | 105 | 99.3 | 120 | 110 | 130 | 111 | 111 | 111 | 97.4 | 113 | 119 | 141 | 118 | 136 | 133 | 132 | 137 | 125 | 104 | 116 |
| O=C(NC1CCNCC1)c1n[nH]cc1NC(=O)c1c(Cl)cccc1Cl | 93 | 95.9 | 103 | 127 | 118 | 119 | 98.8 | 16.4 | 7.23 | 5.22 | 3.82 |  |  |  |  |  |  |  |  |  |  |  | 108 | 97.6 | 126 | 115 | 118 | 121 | 129 | 24.6 | 7.87 | 5.31 | 3.76 |
| CC/1=C/N([C@@H]2C[C@@H](O)[C@H](CO)O2)C(=O)NC1=O | 78.6 | 82 | 71.8 | 94.7 | 74 | 75.8 | 86.4 | 84.1 | 54.1 | 67.9 | 30.7 | 113 | 97.1 | 100 | 97.4 | 76.5 | 99.3 | 115 | 95.8 | 53.2 | 80.4 | 38 | 81.7 | 74.4 | 76.5 | 79.2 | 45.6 | 64.3 | 73.7 | 62.3 | 44.3 | 56.9 | 29.3 |
| CCNC(=O)C[C@@H]1\N=C(C2=CC=C(Cl)C=C2)/C3=C(C=CC(=C3)OC)[N]4C(=NN=C14)C |  |  |  |  |  |  |  |  |  |  |  |  |  |  |  |  |  |  |  |  |  |  | 106 | 114 | 107 | 105 | 91.1 | 90.2 | 63.8 | 42.9 | 19.6 | 6.54 | 3.14 |
| COc1cc2nccc(Oc3ccc(NC(=O)Nc4cc(C)on4)c(Cl)c3)c2cc1OC | 112 | 116 | 107 | 107 | 114 | 102 | 100 | 71.2 | 64.1 | 59.9 | 33.1 | 86.4 | 85.2 | 79.9 | 74.3 | 82.1 | 72.5 | 73.9 | 49.6 | 33 | 31.3 | 14.1 | 112 | 125 | 123 | 107 | 108 | 115 | 112 | 71.5 | 61.3 | 43 | 20.1 |
| N[C@@H](C(=O)N[C@H]1[C@H]2SC\C(=C(/N2C1=O)C(O)=O)Cl)C3=CC=CC=C3 | 104 | 101 | 118 | 108 | 117 | 110 | 118 | 108 | 115 | 128 | 132 |  |  |  |  |  |  |  |  |  |  |  | 119 | 135 | 117 | 149 | 137 | 126 | 147 | 150 | 120 | 131 | 129 |
| CCOC(=O)C/1=C(C)/NC(=S)NC1C2=CC=CC(=C2)O (stereo not drawn) | 110 | 99.3 | 103 | 111 | 68.2 | 24.3 | 22.9 | 22.4 | 7.01 | 16 | 15.2 | 89.4 | 104 | 118 | 109 | 109 | 20.5 | 15.2 | 12 | 6.19 | 7.56 | 3.89 | 100 | 100 | 108 | 106 | 101 | 47.2 | 21.2 | 20.8 | 5.56 | 14.3 | 8.93 |
| CN1CCCN(C(=O)c2cccc(-c3ccc(/C=C4/C(=O)Nc5ccc(Cl)cc54)o3)c2)CC1 | 98.9 | 106 | 109 | 101 | 118 | 107 | 84.1 | 71.7 | 48.4 | 22.8 | 2.97 | 90.2 | 117 | 106 | 119 | 127 | 112 | 77.2 | 48 | 16.7 | 5.69 | 3.36 | 110 | 108 | 115 | 106 | 114 | 115 | 75.7 | 62.9 | 20.4 | 5.5 | 3.68 |
| CO/N=C(/C(=O)N[C@@H]1C(=O)N2C(C(=O)O)=C(Cn3ccc(=N)n3CCO)CS[C@H]12)c1csc(N)n1 | 88.8 | 90.5 | 115 | 108 | 112 | 122 | 97.6 | 117 | 121 | 132 | 127 | 123 | 95 | 130 | 136 | 130 | 140 | 125 | 147 | 122 | 151 | 138 |  |  |  |  |  |  |  |  |  |  |  |
| C[C@]\1(CCS\C(=N1)N)C2=CC(=C(F)C=C2F)C3=CN=CN=C3 | 80 | 95.5 | 91.6 | 94.5 | 90.4 | 94.6 | 108 | 99.3 | 102 | 102 | 29.3 | 92 | 84.1 | 98 | 104 | 106 | 95.7 | 96.6 | 114 | 71.2 | 5.19 | 2.28 | 95.1 | 80.4 | 107 | 111 | 103 | 96.4 | 101 | 108 | 95.8 | 51.3 | 2.95 |
| COC1=CC=C2Nc3cc(Cl)ccc3C(N=C3C=C(CN4CCCC4)C(=O)C(CN4CCCC4)=C3)=C2N1 | 90.6 | 113 | 103 | 105 | 107 | 101 | 106 | 111 | 117 | 61.5 | 7.01 | 107 | 112 | 120 | 110 | 115 | 110 | 121 | 113 | 121 | 79 | 50.3 | 83.1 | 108 | 108 | 102 | 102 | 115 | 115 | 80.4 | 105 | 56.4 | 24 |
| CC(=O)N1CCN(c2ccc(OCc3nn(C)c(C)c3-c3cccc4c(CCCOc5cc(C)c(Cl)c(C)c5)c(C(=O)O)n(Cc5cccnc5)c34)cc2)CC1 | 78.5 | 91.7 | 106 | 75.1 | 111 | 118 | 117 | 105 | 99.3 | 97.4 | 2.86 | 97.6 | 84.3 | 97.8 | 77.5 | 97.3 | 104 | 117 | 100 | 82.5 | 54 | 1.85 | 96.3 | 101 | 106 | 81.2 | 111 | 112 | 110 | 121 | 94.6 | 77.5 | 1.96 |
| CN(C)Cc1ccc(-c2nc3cccc4c3n2CCNC4=O)cc1 | 100 | 105 | 93.5 | 114 | 114 | 118 | 122 | 121 | 127 | 119 | 113 | 103 | 106 | 119 | 117 | 109 | 127 | 94.7 | 120 | 129 | 109 | 115 | 91.4 | 96.3 | 107 | 94.7 | 97.8 | 107 | 93 | 98.7 | 105 | 110 | 98.3 |
| CCOC(=O)Nc1ccc(NCc2ccc(F)cc2)cc1N | 122 | 122 | 128 | 120 | 103 | 123 | 119 | 112 | 113 | 107 | 90 | 115 | 116 | 123 | 136 | 102 | 131 | 122 | 111 | 113 | 134 | 97.7 | 106 | 132 | 121 | 128 | 123 | 124 | 112 | 122 | 124 | 122 | 83.5 |
